Test results reported in patent publication US20230329283A1 (priority 2021, published 2023).

Key:
[1] = tested on: four bacterial suspensions (Escherichia coli, Salmonella, Staphylococcus aureus and Clostridium perfringens); format: cell-based; conditions: trypsin 250U/mL, pH 8.0, 37° C., 30-180 min, TrSub at MIC, FIG. 5B
Clostridium perfringens [2] = format: cell-based; conditions: concentration inhibiting growth of 99.9% bacteria, 16h culture on solid medium
[3] = tested on: colon bacillus (Escherichia coli); format: cell-based
[4] = tested on: Escherichia coli, Salmonella, Staphylococcus aureus and Clostridium perfringens; format: cell-based; conditions: on Escherichia coli
[5] = tested on: Four indicator bacteria (Escherichia coli, Salmonella, Staphylococcus aureus and Clostridium perfringens); format: cell-based; conditions: FIG. 4
salmonella [6] = test: Minimum bactericidal concentration (MBC); format: cell-based; conditions: concentration inhibiting growth of 99.9% bacteria, 16h culture on solid medium
salmonella [7] = format: cell-based
[8] = tested on: four bacterial suspensions (Escherichia coli, Salmonella, Staphylococcus aureus and Clostridium perfringens); format: cell-based; conditions: pepsin 3000 U/mL, pH 2.0, 37° C., 30-180 min, FIG. 5A
Clostridium perfringens [9] = format: cell-based; conditions: 16 hours at 37° C., 105 CFU/mL, minimum concentration making the hole clear
[10] = tested on: colon bacillus (Escherichia coli); conditions: concentration inhibiting growth of 99.9% bacteria, 16h culture on solid medium

Substance: TrSub (EFGAGKAQCAAAWLQCASGGTLGCGGGAVACQNYRQFQCRAA; the amino acid sequence of the recombinant antimicrobial peptide TrSub)
- stability to trypsin [1]: poor
- inhibition rate of the two Gram-positive bacteria after trypsin treatment ([1]; Gram-positive bacteria): about 80%
- MBC Gram-positive bacteria Clostridium perfringens (Clostridium perfringens [2]): 25 µg/mL
- MIC Gram-negative bacteria colon bacillus [3]: 37.5 µg/mL
- antibacterial activity of the expression product [4]: inhibitory effect
- change in the inhibition rate of each bacterium after heat treatment ([5]; boiling water for 20 min): almost no change
- inhibition rate after heat treatment ([5]; boiling water, 25 min treatment): about 80%
- MBC Gram-negative bacteria salmonella (salmonella [6]): 75 µg/mL
- MIC Gram-negative bacteria salmonella (salmonella [7]): 37.5 µg/mL
- inhibition rate to various bacteria after being treated by pepsin ([8]; TrSub at MIC): above 80%
- stability to pepsin [8]: good stability
- MIC Gram-positive bacteria Clostridium perfringens (Clostridium perfringens [9]): 25 µg/mL
- MBC Gram-negative bacteria colon bacillus [10]: 37.5 µg/mL
